According to paper PMC2728625 (Nature structural & molecular biology, 2009):
Marks after values point to notes of the source that are not given here.

Assays:
[1] = molecular target: T1, PV RdRp WT (Poliovirus type 1, UniProt P03300); type: biochemical
[2] = molecular target: T7 DdRp WT (Escherichia phage T7, UniProt P00573); type: biochemical
[3] = molecular target: T7 DdRp K631L (Escherichia phage T7, UniProt P00573, K631L); type: biochemical
[4] = molecular target: T1, PV RdRp WT; type: biochemical; remark: listed apart in the source
[5] = molecular target: T1, PV RdRp WT; details: cited from earlier work
[6] = read-out: Kd,app (apparent dissociation constant for nucleotide)

T1 sequence (P03300 1749-2209 limits assumed): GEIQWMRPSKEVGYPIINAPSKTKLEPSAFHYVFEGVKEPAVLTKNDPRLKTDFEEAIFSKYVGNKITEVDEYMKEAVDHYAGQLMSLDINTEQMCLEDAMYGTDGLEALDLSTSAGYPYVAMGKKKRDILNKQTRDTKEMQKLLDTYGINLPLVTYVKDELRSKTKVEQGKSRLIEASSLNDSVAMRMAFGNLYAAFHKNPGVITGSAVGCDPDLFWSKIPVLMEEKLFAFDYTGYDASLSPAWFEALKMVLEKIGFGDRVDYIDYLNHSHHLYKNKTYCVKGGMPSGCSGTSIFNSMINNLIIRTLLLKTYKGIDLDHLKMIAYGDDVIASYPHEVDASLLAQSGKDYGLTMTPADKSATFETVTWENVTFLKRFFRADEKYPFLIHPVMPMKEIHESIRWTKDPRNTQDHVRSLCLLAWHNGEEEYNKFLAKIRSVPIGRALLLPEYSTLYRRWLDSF
Chain of T7 DdRp WT (P00573 whole entry, looked up): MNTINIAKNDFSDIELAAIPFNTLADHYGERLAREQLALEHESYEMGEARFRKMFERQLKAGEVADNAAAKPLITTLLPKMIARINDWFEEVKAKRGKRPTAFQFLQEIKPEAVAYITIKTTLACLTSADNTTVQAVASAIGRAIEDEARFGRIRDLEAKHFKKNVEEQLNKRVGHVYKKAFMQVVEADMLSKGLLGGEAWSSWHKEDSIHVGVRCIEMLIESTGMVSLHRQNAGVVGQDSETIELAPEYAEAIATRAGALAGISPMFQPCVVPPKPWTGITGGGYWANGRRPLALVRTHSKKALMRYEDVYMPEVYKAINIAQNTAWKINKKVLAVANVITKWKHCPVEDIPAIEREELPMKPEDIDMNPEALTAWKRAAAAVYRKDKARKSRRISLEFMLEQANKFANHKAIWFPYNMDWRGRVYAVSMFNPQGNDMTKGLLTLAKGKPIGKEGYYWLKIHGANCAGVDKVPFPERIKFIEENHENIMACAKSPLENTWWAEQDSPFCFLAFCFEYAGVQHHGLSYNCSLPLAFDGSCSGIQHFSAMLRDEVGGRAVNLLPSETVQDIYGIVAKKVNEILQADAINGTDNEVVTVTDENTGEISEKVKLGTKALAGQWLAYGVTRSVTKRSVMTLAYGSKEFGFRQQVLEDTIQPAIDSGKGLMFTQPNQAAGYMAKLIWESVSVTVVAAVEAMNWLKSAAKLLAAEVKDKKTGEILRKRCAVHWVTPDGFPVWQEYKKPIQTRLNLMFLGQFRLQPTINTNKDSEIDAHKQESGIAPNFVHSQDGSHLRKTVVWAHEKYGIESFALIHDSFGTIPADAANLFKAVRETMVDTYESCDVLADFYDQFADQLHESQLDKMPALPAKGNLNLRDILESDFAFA
Chain of T7 DdRp K631L (P00573 whole entry K631L, looked up): as the sequence (P00573 whole entry, looked up) above, with K631L counted along it

For Nc1ncnc2c1ncn2[C@@H]1O[C@H](COP(=O)(O)OP(=O)(O)OP(=O)(O)O)[C@@H](O)[C@H]1O [ATP], the “PI (proton inventory: proton-transfer model that best fits)” value [1] was 2, the “SDKIE (solvent deuterium kinetic isotope effect)” value [1] was 3.0 ± 0.3 and the “kpol (maximal rate constant for nucleotide incorporation)” value [1] was 50 ± 5 s⁻¹. For the same molecule, the Kd [1, 6] was 200 ± 20 µM, the “PI (proton inventory: proton-transfer model that best fits)” value [2] was 2 and the “SDKIE (solvent deuterium kinetic isotope effect)” value [2] was 5.2 ± 0.5. The “kpol (maximal rate constant for nucleotide incorporation)” value ([2]; pH 7.5) was 60 ± 5 s⁻¹, the Kd ([2]; read-out: Kd,app (apparent dissociation constant for nucleotide), pH 7.5) was 300 ± 30 µM and the “SDKIE (solvent deuterium kinetic isotope effect)” value [3] was 2.6 ± 0.5 ^c. The “kpol (maximal rate constant for nucleotide incorporation)” value [3] was 0.6 ± 0.1 s⁻¹, the “reduction in kpol relative to wt” value [3] was 100 fold and the Kd [3, 6] was 50000 µM. The SDKIE [4] was 7 ± 1 and the “pKa from pH rate profile of kpol, second ionizable group” value [5] was 10.5.
